Measurements reported in publication PMC11061149, “Protein mimetic 2D FAST rescues alpha synuclein aggregation mediated early and post disease Parkinson’s phenotypes” (Nature Communications, 2024).
Several values for one entry are separate records, joined by “and”; a condition that tells them apart may be missing. Identical values can stand only once.

What was measured:
[1] = target: T1, α-Synuclein (αS) aggregation (Homo sapiens, UniProt P37840); assay: Thioflavin T (ThT) dye-based αS aggregation assay (de novo); assay type: biochemical
T1 construct: made in house; host or cells: E. coli BL21(DE3)
Method in brief: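 100 μM αS incubated ±ligand at equimolar ratio, 37 °C with shaking at 1300 rpm; aliquots diluted into PBS containing 50 μM ThT. Fluorescence read at λex 450/λem 490 nm over time, single-point value taken at 96 h; mean of triplicates.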

UA196 worms = assay: Confocal counting of healthy DA neurons, post-disease onset PD model of UA196 worms (treatment on day five); assay type: in vivo, C. elegans
Experimental: The UA196 worms were bleached, and the eggs were incubated on PLATE 1. On day two, the UA196 worms were transferred (using M9 buffer) on PLATE 2 (without ligand). On day five, 10 UA196 worms were used to determine the number of healthy DA worms using confocal imaging (as described earlier) prior to the treatment with ligands on day five. In tandem, ~50 worms were transferred to PLATE 3 (with ligand) using M9 buffer (10-20 µL) and the plate was incubated at 20 °C in the incubator. On days 10 and 15, 10 UA196 worms from PLATE 2 (without ligand) and PLATE 3 (with ligand) were used to determine the number of healthy DA worms using confocal imaging (as described earlier). For each condition, six biological replicates were performed and at least 10 technical replicates were used for each biological replicate. […] (n = 6 independent experiments and each n consisted of a minimum of ten technical replicates).

[2] = UA196 worms+NS132, Day 10, per trial (10 worms)
[3] = UA196 worms+NS132, Day 15, per trial (10 worms)

Cc1ccc(NC(=O)c2ccc(NC(=O)c3ccc([N+](=O)[O-])c(NCCc4c[nH]c5ccccc45)n3)c(NCC3CCCCC3)n2)c(OCC(=O)O)n1 [NS132]
ThT fluorescence intensity, Average ([1]; 100 µM αS + equimolar ligand, aggregation profile Fig. 2n/5c, time 0 hr): 108 | ThT fluorescence intensity, Average ([1]; 100 µM αS + equimolar ligand, comparison with reported ligands Fig. 5f, time 0 hr): 49.3333 | effect on αS aggregation (ThT assay), in words ([1]; 100 µM αS, equimolar, four days): completely suppressed | ThT intensity relative to Synuclein alone (=1), Average ([1]; 100 µM αS, four days, equimolar): 0.008333 | ThT intensity relative to Synuclein alone (=1), Trial 1-3 ([1]; 100 µM αS, four days, equimolar, individual trials): 0.009745 and 0.008898 and 0.006356 | ThT fluorescence intensity, Average ([1]; Fig. 2n/5c profile, time 6 hr): 108 | ThT fluorescence intensity, Average ([1]; Fig. 2n/5c profile, time 12 hr): 44.6667 | ThT fluorescence intensity, Average ([1]; Fig. 2n/5c profile, time 24 hr): 48.6667 | ThT fluorescence intensity, Average ([1]; Fig. 2n/5c profile, time 35 hr): 41 | ThT fluorescence intensity, Average ([1]; Fig. 2n/5c profile, time 48 hr): 76.6667 | ThT fluorescence intensity, Average ([1]; Fig. 2n/5c profile, time 58 hr): 49 | ThT fluorescence intensity, Average ([1]; Fig. 2n/5c profile, time 77 hr): 35 | ThT fluorescence intensity, Average ([1]; Fig. 2n/5c profile, time 105 hr): 35.3333 | ThT fluorescence intensity, Average ([1]; Fig. 5f profile, time 6 hr): 35.6667 | ThT fluorescence intensity, Average ([1]; Fig. 5f profile, time 12 hr): 44.3333 | ThT fluorescence intensity, Average ([1]; Fig. 5f profile, time 24 hr): 46 | ThT fluorescence intensity, Average ([1]; Fig. 5f profile, time 36 hr): 47.6667 | ThT fluorescence intensity, Average ([1]; Fig. 5f profile, time 48 hr): 43.6667 | ThT fluorescence intensity, Average ([1]; Fig. 5f profile, time 72 hr): 43.6667 | ThT fluorescence intensity, Average ([1]; Fig. 5f profile, time 96 hr): 44.6667 | Relative ThT intensity of αS aggregation, Average ([1]; sheet S7A, Synuclein alone about 1): 0.008333 | Relative ThT intensity of αS aggregation ([1]; sheet S7A, Synuclein alone about 1, individual trials): 0.009745 and 0.008898 and 0.006356 | Relative ThT intensity of αS aggregation, Average ([1]; sheet S8B, Synuclein alone = 1): 0.04997 | Relative ThT intensity of αS aggregation ([1]; sheet S8B, Synuclein alone about 1, individual trials): 0.0476 and 0.0492 and 0.0531 | ThT intensity of Synuclein with ligand, Average ([1]; sheet S17, average of 3 trials, Synuclein alone 206, ThT control 37): 50.3667 | ThT intensity of Synuclein with ligand, Trial 1-3 ([1]; sheet S17, individual trials, Synuclein alone average 206, ThT control average 37): 48.4 and 53.2 and 49.5 | inhibition of αS aggregation, in words ([1]; substoichiometric ratio αS:NS132 1:0.2): wholly inhibit | ThT intensity (raw), individual trials ([1]; αS aggregation after four days, NS132 derivatives equimolar (Fig. 2r)): 1344 and 1402 and 1510 | number of intact healthy DA neurons (max. 60) (UA196 worms; 50 μM ligand on day five, day 15 (untreated 13.8 / 12.8)): 32 | healthy DA neurons, Average (UA196 worms; UA196+ 50 uM NS132, day 5 (same value as UA196 control)): 44.8333 | healthy DA neurons, Average (UA196 worms; UA196+ 50 uM NS132, day 10): 34.8333 | healthy DA neurons, Average (UA196 worms; UA196+ 50 uM NS132, day 15): 32 | healthy DA neurons per trial (UA196 worms; UA196 worms+Ligands, single trials 1-6, day not given): 31 and 33 | Number of worms with 5 neurons (UA196 worms; [2]): 1 and 2 | Number of worms with 6 neurons (UA196 worms; [2]): 0 | number of worms with 3 neurons (UA196 worms; [2]): 4 and 3 | number of worms with 4 neurons (UA196 worms; [2]): 3 and 4 | Number of worms with 2 neurons (UA196 worms; [3]): 1 and 2 | Number of worms with 5 neurons (UA196 worms; [3]): 0 | Number of worms with 6 neurons (UA196 worms; [3]): 0 | number of worms with 3 neurons (UA196 worms; [3]): 4 and 3 and 2 | number of worms with 4 neurons (UA196 worms; [3]): 4 and 5 and 6
